Measurements taken from US20240033269A1, “PPARAXANTHINE-BASED COMPOSITIONS FOR INHIBITING INFLAMMATION, IMPROVING JOINT HEALTH, AND ENHANCING IMMUNE FUNCTION” (PX ING, LLC, priority 2022, published 2024).

How the values were obtained:
Type in all cases: in vivo, Swiss Albino mice
[1] = system: Th17; assay: Th17 cells by flow cytometry after 28 days oral treatment
Method: (§1) Sixteen 8-week-old male Swiss Albino mice were housed in an animal room at a constant temperature (22±3° C.) and humidity (30-70%) under a 12:12 h light-dark cycle with standard laboratory diet (Purina 5L79, Rat and Mouse 18% protein; PMI Nutrition International, Brentwood, MO, USA). Distilled water was provided ad libitum. All animal experiments were reviewed and approved by the Institutional Animal Ethical Committee (IAEC) of Radiant Research Services Pvt. Ltd. (Bangalore, India). All research was conducted in accordance with the guidelines of the committee for the purpose of control and supervision of experiments on animals.
(§2) After one week of acclimation, the animals were randomly divided by body weight into two groups (n=8 per group in each test) for oral treatment once a day, at approximately the same time each day (±1 h), for 28 consecutive days: (1) vehicle control; (2) paraxanthine. The dose administered to the mice was calculated using US Food and Drug Administration for human equivalence doses (HED), assuming a human weight of 60 kg. The following HED were used in this study: 100 mg paraxanthine, (ENFINITY™, Ingenious Ingredients, L.P Lewisville, TX, USA; mouse dose: 20.5 mg/kg bw/day). […]

[2] = system: Tfh; assay: Tfh cells by flow cytometry after 28 days oral treatment
Method: as §1, §2

[3] = system: iTreg; assay: iTreg cells by flow cytometry after 28 days oral treatment
Method: as §1, §2

[4] = system: Th2; assay: Th2 cells by flow cytometry after 28 days oral treatment
Method: as §1, §2

[5] = system: C-reactive protein (CRP); assay: Blood C-reactive protein after 28 days oral treatment with treadmill exercise training
Method: as §1
(§3) After one week of acclimation, the animals were randomly divided by body weight into two groups (n=8 per group in each test) for oral treatment once a day, at approximately the same time each day (±1 h), for 28 consecutive days: (1) vehicle control; (2) paraxanthine. The dose administered to the mice was calculated using US Food and Drug Administration for human equivalence doses (HED), assuming a human weight of 60 kg. The following HED were used in this study: 100 mg paraxanthine, (ENFINITY™, Ingenious Ingredients, L.P Lewisville, TX, USA; mouse dose: 20.5 mg/kg bw/day).
(§4) During the treatment period, exercise training was completed using a motorized treadmill (Exer 3/6, Columbus Instruments international, Columbus, OH, USA) at a moderate intensity of 20 cm/sec as maximal running speed, an incline of 10 degrees and a shock intensity of 0.2 mA, for 10 min. The speed of the treadmill was manually adjusted by increasing the belt speed by 5 cm/sec every 2 min throughout the total duration of 10 min. All animals were adapted to this procedure daily 60 min after dosing for 5 days in a week during the treatment period.
(§5) On 29th day, blood was collected from retro-orbital route for biochemical analysis. IL-2, IL-6, IL-10, assay was done by using standard ELISA assay kit method. The Tfh,/iTreg assay was done by using flow cytometry method.

[6] = system: Th1; assay: Th1 cells by flow cytometry after 28 days oral treatment
Method: as §1, §2

[7] = system: IL-2; assay: Serum IL-2 by ELISA after 28 days oral treatment with treadmill exercise training
Method: as §1, §3, §4, §5

[8] = system: IL-10; assay: Serum IL-10 by ELISA after 28 days oral treatment with treadmill exercise training
Method: as §1, §3, §4, §5

[9] = system: IL-6; assay: Serum IL-6 by ELISA after 28 days oral treatment with treadmill exercise training
Method: as §1, §3, §4, §5

[10] = mice, 28 days oral, versus control

Cn1c(=O)[nH]c2ncn(C)c2c1=O [Paraxanthine, 1,7-dimethyl-3H-purine-2,6-dione]
Delta Th17 ([1]; change versus control, day 29): +758.4% | Th17 (%) ([1]; mice, oral 20.5 mg/kg bw/day 28 days, blood on day 29, control 3.65 ± 0.85): 31.33 ± 1.31 % | Delta Tfh ([2]; change versus control, day 29): +602.8% | Tfh (%) ([2]; mice, oral 20.5 mg/kg bw/day 28 days, blood on day 29, control 7.82 ± 1.04): 54.96 ± 4.44 % | Delta iTreg ([3]; change versus control, day 29): −56.5% | iTreg (%) ([3]; mice, oral 20.5 mg/kg bw/day 28 days, blood on day 29, control 54.47 ± 4.2): 23.68 ± 2.62 % | Delta Th2 ([4]; change versus control, day 29): +368.0% | Th2 (%) ([4]; mice, oral 20.5 mg/kg bw/day 28 days, blood on day 29, control 11.46 ± 3.16): 53.63 ± 3.85 % | Delta CRP ([5]; change versus control, day 29): −18.3% | effect on C-reactive protein (CRP) (in words) [5, 10]: reduced | CRP (mg/L) Inflammation ([5]; mice, oral once daily 28 days (paraxanthine 20.5 mg/kg bw/day), blood on day 29, control 0.77 ± 0.09): 0.64 ± 0.07 mg/L | Delta Th1 ([6]; change versus control, day 29): −29.8% | Th1 (%) ([6]; mice, oral 20.5 mg/kg bw/day 28 days, blood on day 29, control 93.54 ± 2.82): 65.68 ± 3.98 % | Delta IL-2 ([7]; change versus control, day 29): +23.1% | effect on IL-2 (in words) [7, 10]: increased | IL-2 (ng/L) Adaptive Immunity ([7]; mice, oral once daily 28 days (paraxanthine 20.5 mg/kg bw/day), blood on day 29, control 37.29 ± 1.88): 45.91 ± 2.68 ng/L | Delta IL-10 ([8]; change versus control, day 29): +8.3% | effect on anti-inflammatory cytokine IL-10 (in words) [8, 10]: increased | IL-10 (pg/ml) Anti-inflammatory ([8]; mice, oral once daily 28 days (paraxanthine 20.5 mg/kg bw/day), blood on day 29, control 527.86 ± 9.22): 571.71 ± 16.43 pg/mL | Delta IL-6 ([9]; change versus control, day 29): −7.7% | effect on pro-inflammatory cytokine IL-6 (in words) [9, 10]: reduced | IL-6 (pg/ml) Pro-inflammatory ([9]; mice, oral once daily 28 days (paraxanthine 20.5 mg/kg bw/day), blood on day 29, control 369.04 ± 13): 340.6 ± 13.6 pg/mL
